Test results taken from patent US10407433B2, “Substituted 4-phenylpiperidines, their preparation and use” (The Trustees of Columbia University in the City of New York, priority 2014, dated 2019).
pIC50: −log10 of the molar value.

Legend:
RBP4-TTR interaction = RBP4-TTR interaction (Homo sapiens (Human), UniProt P02753); experiment: TR-FRET (HTRF) assay for retinol-induced RBP4-TTR interaction; assay type: biochemical; details: in the presence of 1 μM retinol; read-out: HTRF assay for antagonists of RBP4-TTR interaction: IC50
Excerpt: TR-FRET Assay for Retinol-Induced RBP4-TTR Interaction
Binding of a desired RBP4 antagonist displaces retinol and induces hindrance for RBP4-TTR interaction resulting in the decreased FRET signal (FIG. 7). Bacterially expressed MBP-RBP4 and untagged TTR were used in this assay. […] Following cell lysis, recombinant RBP4 was purified from the soluble fraction using the ACTA FPLC system (GE Healthcare) equipped with the 5-ml the MBP Trap HP column. Human untagged TTR was purchased from Calbiochem. Untagged TTR was labeled directly with Eu^3+ Cryptate-NHS using the HTRF Cryptate Labeling kit from CisBio following the manufacturer's recommendations. HTRF assay was performed in white low volume 384 well plates (Greiner-Bio) in a final assay volume of 16 μl per well. The reaction buffer contained 10 mM Tris-HCl pH 7.5, 1 mM DTT, 0.05% NP-40, 0.05% Prionex, 6% glycerol, and 400 mM KF. […] Titration of test compounds in this assay was conducted in the presence of 1 μM retinol. All reactions were assembled in the dark under dim red light and incubated overnight at +4° C. wrapped in aluminum foil. TR-FRET signal was measured in the SpectraMax M5e Multimode Plate Reader (Molecular Device). […] The TR-FRET signal was expressed as the ratio of fluorescence intensity: Flu665/Flu620×10,000.

RBP4 = RBP4 (Homo sapiens (Human), UniProt P02753); experiment: Scintillation proximity RBP4 binding assay (SPA); details: 10 nM 3H-Retinol, 50 nM biotinylated RBP4
Experimental: Scintillation Proximity RBP4 Binding Assay
Untagged human RBP4 purified from urine of tubular proteinuria patients was purchased from Fitzgerald Industries International. It was biotinylated using the EZ-Link Sulfo-NHS-LC-Biotinylation kit from Pierce following the manufacturer's recommendations. Binding experiments were performed in 96-well plates (OptiPlate, PerkinElmer) in a final assay volume of 100 μl per well in SPA buffer (1×PBS, pH 7.4, 1 mM EDTA, 0.1% BSA, 0.5% CHAPS). The reaction mix contained 10 nM ^3H-Retinol (48.7 Ci/mmol; PerkinElmer), 0.3 mg/well Streptavidin-PVT beads, 50 nM biotinylated RBP4 and a test compound. Nonspecific binding was determined in the presence of 20 μM of unlabeled retinol.
The reaction mix was assembled in the dark under dim red light. The plates were sealed with clear tape (TopSeal-A: 96-well microplate, PerkinElmer), wrapped in the aluminum foil, and allowed to equilibrate 6 hours at room temperature followed by overnight incubation at +4° C. Radiocounts were measured using a TopCount NXT counter (Packard Instrument Company).

Question: How did the pIC50 (RBP4-TTR interaction) turn out when `COC(=O)N1CCc2[nH]nc(C(=O)N3CCC(c4cccc(F)c4C(F)(F)F)CC3)c2C1` [Compound 68] was run?
Answer: The pIC50 was 7.44.

Question: What about the pIC50 (RBP4) of the same compound?
Answer: The pIC50 was over 8.86.
